Reference: ChEMBL document CHEMBL3044541, “Control of crown rot-causing fungal pathogens of banana by inorganic salts and a surfactant” (Crop Prot, 2007)
Active and inactive are the calls of the source. No cut-off for these calls is given here.

Experiments:
Colletotrichum musae [1] = assay: Antifungal activity against Colletotrichum musae infected Cavendish banana fruit assessed as reduction in crown rot incubated for 15 min followed by compound washout measured after 2 weeks in absence of surfactant APSA 80 relative to control; format: functional; set-up: concentration or dose not given beside the values
Colletotrichum musae [2] = assay: Antifungal activity against Colletotrichum musae assessed as reduction in colony diameter at 10 to 160 g/l incubated for 15 min followed by compound washout measured after 7 days in presence of surfactant APSA 80 relative to control; format: functional; set-up: scale not given: the % may be the effect or the level left
Colletotrichum musae [3] = assay: Antifungal activity against Colletotrichum musae infected Cavendish banana fruit assessed as reduction in crown rot incubated for 15 min followed by compound washout measured after 1 week in absence of surfactant APSA 80 relative to control; format: functional; set-up: concentration or dose not given beside the values
Colletotrichum musae [4] = assay: Antifungal activity against Colletotrichum musae infected Cavendish banana fruit assessed as reduction in crown rot incubated for 15 min followed by compound washout measured after 1 week in presence of surfactant APSA 80 relative to control; format: functional; set-up: concentration or dose not given beside the values
Lasiodiplodia theobromae [5] = assay: Antifungal activity against Lasiodiplodia theobromae infected Cavendish banana fruit assessed as reduction in crown rot incubated for 15 min followed by compound washout measured after 1 week in presence of surfactant APSA 80 relative to control; format: functional; set-up: concentration or dose not given beside the values
Fusarium verticillioides [6] = assay: Growth inhibition of Fusarium verticillioides assessed as inhibition of mycelial growth up to 160 g/l incubated for 15 min followed by compound washout measured after 7 days in absence of surfactant APSA 80; format: functional
Thielaviopsis paradoxa [7] = assay: Antifungal activity against Ceratocystis paradoxa assessed as inhibition of conidium germination at 5 g/l incubated for 15 min followed by compound washout measured after 7 days by microscopic analysis in presence of surfactant APSA 80; format: functional, organism-based
Fusarium verticillioides [8] = assay: Antifungal activity against Fusarium verticillioides infected Cavendish banana fruit assessed as reduction in crown rot incubated for 15 min followed by compound washout measured after 1 week in presence of surfactant APSA 80 relative to control; format: functional; set-up: concentration or dose not given beside the values
Thielaviopsis paradoxa [9] = assay: Antifungal activity against Ceratocystis paradoxa assessed as reduction in colony diameter at 10 to 160 g/l incubated for 15 min followed by compound washout measured after 7 days in presence of surfactant APSA 80 relative to control; format: functional; set-up: scale not given: the % may be the effect or the level left
Fusarium verticillioides [10] = assay: Antifungal activity against Fusarium verticillioides infected Cavendish banana fruit assessed as reduction in crown rot incubated for 15 min followed by compound washout measured after 2 weeks in absence of surfactant APSA 80 relative to control; format: functional; set-up: concentration or dose not given beside the values
Thielaviopsis paradoxa [11] = assay: Antifungal activity against Ceratocystis paradoxa infected Cavendish banana fruit assessed as reduction in crown rot incubated for 15 min followed by compound washout measured after 2 weeks in absence of surfactant APSA 80 relative to control; format: functional; set-up: concentration or dose not given beside the values
Fusarium verticillioides [12] = assay: Antifungal activity against Fusarium verticillioides assessed as reduction in colony diameter at 10 to 160 g/l incubated for 15 min followed by compound washout measured after 7 days in presence of surfactant APSA 80 relative to control; format: functional; set-up: scale not given: the % may be the effect or the level left
Thielaviopsis paradoxa [13] = assay: Antifungal activity against Ceratocystis paradoxa assessed as reduction in colony diameter at 10 to 160 g/l incubated for 15 min followed by compound washout measured after 7 days in absence of surfactant APSA 80 relative to control; format: functional; set-up: scale not given: the % may be the effect or the level left
Fusarium verticillioides [14] = assay: Antifungal activity against Fusarium verticillioides infected Cavendish banana fruit assessed as reduction in crown rot incubated for 15 min followed by compound washout measured after 2 weeks in presence of surfactant APSA 80 relative to control; format: functional; set-up: concentration or dose not given beside the values
Thielaviopsis paradoxa [15] = assay: Antifungal activity against Ceratocystis paradoxa infected Cavendish banana fruit assessed as reduction in crown rot incubated for 15 min followed by compound washout measured after 1 week in presence of surfactant APSA 80 relative to control; format: functional; set-up: concentration or dose not given beside the values
Thielaviopsis paradoxa [16] = assay: Antifungal activity against Ceratocystis paradoxa infected Cavendish banana fruit assessed as reduction in crown rot incubated for 15 min followed by compound washout measured after 2 weeks in presence of surfactant APSA 80 relative to control; format: functional; set-up: concentration or dose not given beside the values
Fusarium verticillioides [17] = assay: Growth inhibition of Fusarium verticillioides assessed as inhibition of mycelial growth up to 160 g/l incubated for 15 min followed by compound washout measured after 7 days in presence of surfactant APSA 80; format: functional, organism-based
Lasiodiplodia theobromae [18] = assay: Antifungal activity against Lasiodiplodia theobromae assessed as reduction in colony diameter at 10 to 160 g/l incubated for 15 min followed by compound washout measured after 7 days in absence of surfactant APSA 80 relative to control; format: functional; set-up: scale not given: the % may be the effect or the level left
Thielaviopsis paradoxa [19] = assay: Antifungal activity against Ceratocystis paradoxa infected Cavendish banana fruit assessed as reduction in crown rot incubated for 15 min followed by compound washout measured after 1 week in absence of surfactant APSA 80 relative to control; format: functional; set-up: concentration or dose not given beside the values
Lasiodiplodia theobromae [20] = assay: Antifungal activity against Lasiodiplodia theobromae infected Cavendish banana fruit assessed as reduction in crown rot incubated for 15 min followed by compound washout measured after 2 weeks in absence of surfactant APSA 80 relative to control; format: functional; set-up: concentration or dose not given beside the values
Fusarium verticillioides [21] = assay: Antifungal activity against Fusarium verticillioides assessed as reduction in colony diameter at 10 to 160 g/l incubated for 15 min followed by compound washout measured after 7 days in absence of surfactant APSA 80 relative to control; format: functional; set-up: scale not given: the % may be the effect or the level left
Colletotrichum musae [22] = assay: Growth inhibition of Colletotrichum musae assessed as inhibition of mycelial growth up to 160 g/l incubated for 15 min followed by compound washout measured after 7 days in absence of surfactant APSA 80; format: functional
Lasiodiplodia theobromae [23] = assay: Antifungal activity against Lasiodiplodia theobromae assessed as reduction in colony diameter at 10 to 160 g/l incubated for 15 min followed by compound washout measured after 7 days in presence of surfactant APSA 80 relative to control; format: functional; set-up: scale not given: the % may be the effect or the level left
Colletotrichum musae [24] = assay: Antifungal activity against Colletotrichum musae infected Cavendish banana fruit assessed as reduction in crown rot incubated for 15 min followed by compound washout measured after 2 weeks in presence of surfactant APSA 80 relative to control; format: functional; set-up: concentration or dose not given beside the values
Lasiodiplodia theobromae [25] = assay: Antifungal activity against Lasiodiplodia theobromae infected Cavendish banana fruit assessed as reduction in crown rot incubated for 15 min followed by compound washout measured after 1 week in absence of surfactant APSA 80 relative to control; format: functional; set-up: concentration or dose not given beside the values
Fusarium verticillioides [26] = assay: Antifungal activity against Fusarium verticillioides infected Cavendish banana fruit assessed as reduction in crown rot incubated for 15 min followed by compound washout measured after 3 weeks in presence of surfactant APSA 80 relative to control; format: functional; set-up: concentration or dose not given beside the values; settings: pooled result: one value given for 4 cell lines, strains, targets or settings
Fusarium verticillioides [27] = assay: Antifungal activity against Fusarium verticillioides infected Cavendish banana fruit assessed as reduction in crown rot incubated for 15 min followed by compound washout measured after 3 weeks in absence of surfactant APSA 80 relative to control; format: functional; set-up: concentration or dose not given beside the values; settings: pooled result: one value given for 4 cell lines, strains, targets or settings
Thielaviopsis paradoxa [28] = assay: Growth inhibition of Ceratocystis paradoxa assessed as inhibition of mycelial growth up to 160 g/l incubated for 15 min followed by compound washout measured after 7 days in presence of surfactant APSA 80; format: functional
Colletotrichum musae [29] = assay: Antifungal activity against Colletotrichum musae assessed as reduction in colony diameter at 10 to 160 g/l incubated for 15 min followed by compound washout measured after 7 days in absence of surfactant APSA 80 relative to control; format: functional; set-up: scale not given: the % may be the effect or the level left
Lasiodiplodia theobromae [30] = assay: Antifungal activity against Lasiodiplodia theobromae infected Cavendish banana fruit assessed as reduction in crown rot incubated for 15 min followed by compound washout measured after 2 weeks in presence of surfactant APSA 80 relative to control; format: functional; set-up: concentration or dose not given beside the values
Fusarium verticillioides [31] = assay: Antifungal activity against Fusarium verticillioides infected Cavendish banana fruit assessed as reduction in crown rot incubated for 15 min followed by compound washout measured after 1 week in absence of surfactant APSA 80 relative to control; format: functional; set-up: concentration or dose not given beside the values

Compound | Activity (Colletotrichum musae [1]) [%] | Activity (Colletotrichum musae [2]) [%] | Activity (Colletotrichum musae [3]) [%] | Activity (Colletotrichum musae [4]) [%] | Activity (Lasiodiplodia theobromae [5]) [%] | Activity (Fusarium verticillioides [6]) | Activity (Fusarium verticillioides [8]) [%] | Activity (Thielaviopsis paradoxa [9]) [%] | Activity (Fusarium verticillioides [10]) [%] | Activity (Thielaviopsis paradoxa [11]) [%] | Activity (Fusarium verticillioides [12]) [%] | Activity (Thielaviopsis paradoxa [13]) [%] | Activity (Fusarium verticillioides [14]) [%] | Activity (Thielaviopsis paradoxa [15]) [%] | Activity (Thielaviopsis paradoxa [16]) [%] | Activity (Lasiodiplodia theobromae [18]) [%] | Activity (Thielaviopsis paradoxa [19]) [%] | Activity (Lasiodiplodia theobromae [20]) [%] | Activity (Fusarium verticillioides [21]) [%] | Activity (Colletotrichum musae [22]) | further results
[Ca+2].[Cl-].[Cl-] [CALCIUM CHLORIDE] | 0 | 62 | 0 | 0 | 0 | inactive | 0 | 56 | 0 | 0 | 53 | 28 | 50 | 0 | 50 | 35 | 0 | 0 | 5 | inactive | inhibition (Thielaviopsis paradoxa [7]): Active; Activity (Fusarium verticillioides [17]): inactive; Activity (Lasiodiplodia theobromae [23]): 87%; Activity (Colletotrichum musae [24]): 50%; Activity (Lasiodiplodia theobromae [25]): 0%; Activity (Fusarium verticillioides [26]): 58%; Activity (Fusarium verticillioides [27]): 42%; Activity (Thielaviopsis paradoxa [28]): inactive; Activity (Colletotrichum musae [29]): 0%; Activity (Lasiodiplodia theobromae [30]): 50%; Activity (Fusarium verticillioides [31]): 0%
[Cl-].[Na+] [SODIUM CHLORIDE] | 0 | 93 | 0 | 0 | 0 | inactive | 0 | 84 | 0 | 0 | 79 | 71 | 10 | 0 | 10 | 90 | 0 | 0 | 83 | inactive | Activity (Fusarium verticillioides [17]): inactive; Activity (Lasiodiplodia theobromae [23]): 94%; Activity (Colletotrichum musae [24]): 10%; Activity (Lasiodiplodia theobromae [25]): 0%; Activity (Fusarium verticillioides [26]): 0%; Activity (Fusarium verticillioides [27]): -5%; Activity (Thielaviopsis paradoxa [28]): inactive; Activity (Colletotrichum musae [29]): 83%; Activity (Lasiodiplodia theobromae [30]): 10%; Activity (Fusarium verticillioides [31]): 0%
[Na+].[O-]Cl [SODIUM HYPOCHLORITE] | 50 | 78 | 0 | 0 | 0 | 50 g/L | 0 | 67 | 50 | 50 | 51 | 18 | 50 | 0 | 50 | 40 | 0 | 50 | 0 | 30 g/L | inhibition (Thielaviopsis paradoxa [7]): Active; Activity (Lasiodiplodia theobromae [23]): 92%; Activity (Colletotrichum musae [24]): 50%; Activity (Lasiodiplodia theobromae [25]): 0%; Activity (Fusarium verticillioides [26]): 47%; Activity (Fusarium verticillioides [27]): 61%; Activity (Thielaviopsis paradoxa [28]): 90 g/L; Activity (Colletotrichum musae [29]): 13%; Activity (Lasiodiplodia theobromae [30]): 50%; Activity (Fusarium verticillioides [31]): 0%
